Test results: ChEMBL document CHEMBL3588836, “Development of Quinoline-2,4(1H,3H)-diones as Potent and Selective Ligands of the Cannabinoid Type 2 Receptor” (J Med Chem, 2015)

Key:
Cannabinoid receptor 2 [1] = target: T1, Cannabinoid receptor 2 (Homo sapiens, UniProt P34972); test: Agonist activity at CB2R (unknown origin) CHO cells stably expressing Galpha16 assessed as increase in intracellular calcium level by microplate reader based assay; type: functional, cell-based
Cannabinoid receptor 1 [2] = target: T2, Cannabinoid receptor 1 (Homo sapiens, UniProt P21554); test: Agonist activity at CB1R (unknown origin) CHO cells stably expressing Galpha16 assessed as increase in intracellular calcium level by microplate reader based assay; type: functional, cell-based
T2 sequence (P21554 whole entry): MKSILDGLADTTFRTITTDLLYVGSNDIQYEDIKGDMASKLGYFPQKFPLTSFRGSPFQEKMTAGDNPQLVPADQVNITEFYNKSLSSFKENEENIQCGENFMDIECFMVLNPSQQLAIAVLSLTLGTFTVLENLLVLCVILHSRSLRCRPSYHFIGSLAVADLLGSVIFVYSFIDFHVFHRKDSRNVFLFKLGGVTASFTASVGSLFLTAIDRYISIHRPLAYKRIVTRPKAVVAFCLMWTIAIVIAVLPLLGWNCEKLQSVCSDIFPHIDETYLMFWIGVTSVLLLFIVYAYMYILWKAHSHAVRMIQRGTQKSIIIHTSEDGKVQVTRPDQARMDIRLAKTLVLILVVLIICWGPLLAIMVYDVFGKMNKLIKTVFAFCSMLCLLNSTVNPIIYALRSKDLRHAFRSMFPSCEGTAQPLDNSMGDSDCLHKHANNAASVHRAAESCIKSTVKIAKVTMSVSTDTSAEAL

CHO [3] = test: Selectivity index, ratio of EC50 for CB1R (unknown origin) CHO cells stably expressing Galpha16 to EC50 for CB2R (unknown origin) CHO cells stably expressing Galpha16; type: cell-based; conditions: Homo sapiens
Cannabinoid receptor 2 [4] = target: T1, Cannabinoid receptor 2; test: Agonist activity at CB2R (unknown origin) CHO cells stably expressing Galpha16 assessed as increase in intracellular calcium level by microplate reader based assay relative to CP55940; type: functional, cell-based
Cannabinoid receptor 1 [5] = target: T2, Cannabinoid receptor 1; type: functional, cell-based, CHO
CHO [6] = test: Selectivity index, ratio of IC50 for CB1R (unknown origin) CHO cells stably expressing Galpha16 to IC50 for CB2R (unknown origin) CHO cells stably expressing Galpha16; type: cell-based; conditions: Homo sapiens
Cannabinoid receptor 2 [7] = target: T1, Cannabinoid receptor 2; test: Antagonist activity against CB2R (unknown origin) CHO cells stably expressing Galpha16 assessed as inhibition of CP55940-induced increase in intracellular calcium level pre-treated 10 mins before CP55940 stimulation by microplate reader based assay relative to […]; type: functional, cell-based
Cannabinoid receptor 2 [8] = target: T1, Cannabinoid receptor 2; test: Antagonist activity against CB2R (unknown origin) CHO cells stably expressing Galpha16 assessed as inhibition of CP55940-induced increase in intracellular calcium level pre-treated 10 mins before CP55940 stimulation by microplate reader based assay; type: functional, cell-based

T1 sequence (P34972 whole entry): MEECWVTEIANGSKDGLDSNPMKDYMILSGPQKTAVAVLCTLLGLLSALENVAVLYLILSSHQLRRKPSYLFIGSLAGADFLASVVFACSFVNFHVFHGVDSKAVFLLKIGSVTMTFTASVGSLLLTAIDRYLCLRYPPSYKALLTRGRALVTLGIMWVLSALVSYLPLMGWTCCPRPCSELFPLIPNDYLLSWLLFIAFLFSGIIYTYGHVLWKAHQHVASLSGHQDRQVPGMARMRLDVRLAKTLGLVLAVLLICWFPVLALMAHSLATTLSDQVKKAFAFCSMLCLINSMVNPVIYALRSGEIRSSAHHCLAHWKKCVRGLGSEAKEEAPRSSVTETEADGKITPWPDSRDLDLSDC

Row | Structure (SMILES) | EC50 (Cannabinoid receptor 2 [1]; read-out: EC50) [nM] | EC50 (Cannabinoid receptor 1 [2]) [nM] | Ratio EC50 (CHO [3]) | Emax (Cannabinoid receptor 2 [4]) [%] | IC50 (Cannabinoid receptor 1 [5]) [nM] | Ratio IC50 (CHO [6]) | Emax (Cannabinoid receptor 2 [7]) [%] | IC50 (Cannabinoid receptor 2 [8]) [nM] | EC50 (Cannabinoid receptor 2 [1]; read-out: pEC50 (converted)) [nM]
1 | CCCCCN1C(=O)/C(=C/NC2CCCCC2)C(=O)c2cccc(OC)c21 | > 10000 | > 10000 |  |  |  |  |  |  | 
2 | CCCCN1C(=O)/C(=C/NN2CCCCC2)C(=O)c2cccc(C)c21 | 993 | > 10000 | > 10.1 | 58 |  |  |  |  | 
3 | CCCCN1C(=O)/C(=C/NCc2cccnc2)C(=O)c2cccc(C)c21 | > 10000 | > 10000 |  |  |  |  |  |  | 
4 | CCCCN1C(=O)/C(=C/NN2CCOCC2)C(=O)c2cccc(C)c21 | 477 | > 10000 | > 21 | 78.7 |  |  |  |  | 
5 | CCCCN1C(=O)/C(=C/NC2CCCCC2)C(=O)c2cc(OC)ccc21 |  |  |  |  | > 10000 | > 2.39 | 99.7 | 4190 | 
6 | CCCCN1C(=O)/C(=C/NC(C)CCC)C(=O)c2cccc(C)c21 (stereo unspecified) | 116 | > 10000 | > 86.2 | 53.6 |  |  |  |  | 
7 | CCCCN1C(=O)/C(=C/NC2CCCCC2)C(=O)c2c(C)cccc21 | 341 | > 10000 | > 29.3 | 104 |  |  |  |  | 
8 | CCCCN1C(=O)/C(=C/NCc2ccc(F)cc2)C(=O)c2cccc(C)c21 | > 10000 | > 10000 |  |  |  |  |  |  | 
9 | CCCCCN1C(=O)/C(=C/NC2CCCCC2)C(=O)c2cc(Cl)cc(C)c21 |  |  |  |  | > 10000 | > 6.76 | 95 | 1480 | 
10 | CCCCCN1C(=O)/C(=C/NC2CCCCC2)C(=O)c2cc(C(F)(F)F)ccc21 |  |  |  |  | > 10000 |  |  | > 10000 | 
11 | CCCCN1C(=O)/C(=C/NCC(C)C)C(=O)c2cccc(C)c21 | 44.3 | > 10000 | > 226 | 99 |  |  |  |  | 44
12 | CCCCCN1C(=O)/C(=C/NC2CCCCC2)C(=O)c2cc(C)ccc21 |  |  |  |  | > 10000 |  |  | > 10000 | 
13 | CCCCOc1c(OC)ccc2cc(C(=O)NCCc3ccc(N)cc3)c(=O)[nH]c12 |  |  |  |  | > 10000 | > 18.3 | 102 |  | 
14 | CCCCN1C(=O)/C(=C/NC2CCCC2)C(=O)c2cccc(C)c21 | 58 | > 10000 | > 172 | 129 |  |  |  |  | 
15 | CCCCCN1C(=O)/C(=C/NC2CCCCC2)C(=O)c2cc(OC)cc(OC)c21 |  |  |  |  | > 10000 |  |  | > 10000 | 
16 | Cc1cccc2c1N(CC1CC1)C(=O)/C(=C/NC1CCCCC1)C2=O | 670 | > 10000 | > 14.9 | 111 |  |  |  |  | 
17 | CCCCCN1C(=O)/C(=C/NC2CCCCC2)C(=O)c2cc(Br)ccc21 |  |  |  |  | > 10000 | > 5.95 | 96.8 | 1680 | 
18 | CCCCCN1C(=O)/C(=C/NC2CCCCC2)C(=O)c2ccccc21 | 472 | > 10000 | > 21.2 | 101 |  |  |  |  | 
19 | CCCCN/C=C1\C(=O)c2cccc(C)c2N(CCCC)C1=O | 90.7 | > 10000 | > 110 | 64.7 |  |  |  |  | 91
20 | CCCCCN1C(=O)/C(=C/NC2CCCCC2)C(=O)c2ccc(OC)cc21 |  |  |  |  | > 10000 | > 51.5 | 97.4 | 194 | 
21 | CCCCN1C(=O)/C(=C/NCC2CCC2)C(=O)c2cccc(C)c21 | 220 | > 10000 | > 45.5 | 87.7 |  |  |  |  | 
22 | CCCCCN1C(=O)/C(=C/NC2CCCCC2)C(=O)c2cccc(C)c21 | 320 | > 10000 | > 31.3 | 70.3 |  |  |  |  | 
23 | CCCCN1C(=O)/C(=C/NC(C)(C)C)C(=O)c2cccc(C)c21 | 20 | > 10000 | > 500 | 135 |  |  |  |  | 
24 | CCCCCN1C(=O)/C(=C/NC23CC4CC(CC(C4)C2)C3)C(=O)c2cc(OC)ccc21 |  |  |  |  | > 10000 | > 122 | 106 | 81.7 | 
25 | CCCCCN1C(=O)/C(=C/NC2CCCCC2)C(=O)c2cc(OC)ccc21 |  |  |  |  | > 10000 | > 6.06 | 98.3 | 1650 | 
26 | CCCCN1C(=O)/C(=C/N[C@H]2CC[C@H](O)CC2)C(=O)c2cccc(C)c21 | > 10000 | > 10000 |  |  |  |  |  |  | 
27 | CCCCCN1C(=O)/C(=C/NC2CCCCC2)C(=O)c2cc(Cl)ccc21 |  |  |  |  | > 10000 | > 6.62 | 102 | 1510 | 
28 | CCCN1C(=O)/C(=C/NC2CCCCC2)C(=O)c2cccc(C)c21 | 497 | > 10000 | > 20.1 | 68.2 |  |  |  |  | 
29 | CCCCCN1C(=O)/C(=C/NC2CCCCC2)C(=O)c2cccc(CC)c21 | > 10000 | > 10000 |  |  |  |  |  |  | 
